Laboratory results taken from patent US8952024B2, “Herbicidal pyrimidone derivatives” (E I du Pont de Nemours and Company, priority 2009, dated 2015).

Tests used:
Experiment in all cases: Test B pre-/postemergence plant response
Type in all cases: in vivo
[1] = system: wheat (Triticum aestivum)
In short: (§1)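 Each species received compound formulated in non-phytotoxic solvent with surfactant, either at planting into a loam and sand blend or as a foliar spray once plants reached 2 to 18 cm in peat-based medium. Plants stayed in the greenhouse 13 to 15 days before visual evaluation against controls, scored 0 (no effect) to 100 (complete control).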

[2] = system: johnsongrass (Sorghum halepense)
In short: as §1

[3] = system: velvetleaf (Abutilon theophrasti)
In short: as §1

[4] = system: downy bromegrass (Bromus tectorum)
In short: as §1

kochia (Kochia scoparia) = system: kochia (Kochia scoparia)
In short: as §1

[5] = system: large crabgrass (Digitaria sanguinalis)
In short: as §1

[6] = system: giant foxtail (Setaria faberii)
In short: as §1

[7] = system: goosegrass (Eleusine indica)
In short: as §1

[8] = system: lambsquarters (Chenopodium album)
In short: as §1

[9] = system: pigweed (Amaranthus retroflexus)
In short: as §1

[10] = system: yellow nutsedge (Cyperus esculentus)
In short: as §1

[11] = system: woolly cupgrass (Eriochloa villosa)
In short: as §1

[12] = system: green foxtail (Setaria viridis)
In short: as §1

[13] = Postemergence, 31 g ai/ha, 0 to 100 scale (0 no effect, 100 complete control)
[14] = Postemergence, 62 g ai/ha, scale 0 to 100 (0 no effect, 100 complete control)
[15] = Postemergence, 125 g ai/ha, scale 0 (no effect) to 100 (complete control), 13 to 15 days
[16] = Postemergence, 250 g ai/ha, scale 0 to 100 (0 no effect, 100 complete control), 13 to 15 days
[17] = Preemergence, 31 g ai/ha, scale 0 to 100 (0 no effect, 100 complete control)
[18] = Preemergence, 62 g ai/ha, scale 0 to 100 (0 no effect, 100 complete control)
[19] = Preemergence, 125 g ai/ha, scale 0 to 100, 0 no effect, 100 complete control
[20] = Preemergence, 250 g ai/ha, 0 to 100 scale

CCCCn1c(-c2cc(F)cc(F)c2)ncc(C(=O)C2=C(O)C3CCC(C3)C2=O)c1=O (centres unmarked) [Compound 245]
Plant response rating, Wheat [1, 13]: 75
Plant response rating, Wheat [1, 14]: 95
Plant response rating, Wheat [1, 15]: 95
Plant response rating, Wheat [1, 16]: 98
Plant response rating, Wheat [1, 17]: 0
Plant response rating, Wheat [1, 18]: 0
Plant response rating, Wheat [1, 19]: 5
Wheat plant response rating [1, 20]: 15
Plant response rating, Johnsongrass [2, 13]: 100
Plant response rating, Johnsongrass [2, 14]: 100
Plant response rating, Johnsongrass [2, 15]: 100
Plant response rating, Johnsongrass [2, 16]: 100
Plant response rating, Johnsongrass [2, 17]: 65
Plant response rating, Johnsongrass [2, 18]: 75
Plant response rating, Johnsongrass [2, 19]: 80
Johnsongrass plant response rating [2, 20]: 100
Plant response rating, Velvetleaf [3, 13]: 100
Plant response rating, Velvetleaf [3, 14]: 100
Plant response rating, Velvetleaf [3, 15]: 100
Plant response rating, Velvetleaf [3, 16]: 100
Plant response rating, Velvetleaf [3, 17]: 95
Plant response rating, Velvetleaf [3, 18]: 100
Plant response rating, Velvetleaf [3, 19]: 100
Velvetleaf plant response rating [3, 20]: 100
Plant response rating, Bromegrass, Downy [4, 13]: 60
Plant response rating, Bromegrass, Downy [4, 14]: 95
Plant response rating, Bromegrass, Downy [4, 15]: 95
Plant response rating, Bromegrass, Downy [4, 16]: 95
Plant response rating, Bromegrass, Downy [4, 17]: 0
Plant response rating, Bromegrass, Downy [4, 18]: 0
Plant response rating, Bromegrass, Downy [4, 19]: 0
Bromegrass, Downy plant response rating [4, 20]: 15
Plant response rating, Kochia (kochia (Kochia scoparia); [13]): 85
Plant response rating, Kochia (kochia (Kochia scoparia); [14]): 100
Plant response rating, Kochia (kochia (Kochia scoparia); [15]): 100
Plant response rating, Kochia (kochia (Kochia scoparia); [16]): 100
Plant response rating, Kochia (kochia (Kochia scoparia); [17]): 0
Plant response rating, Kochia (kochia (Kochia scoparia); [18]): 45
Plant response rating, Kochia (kochia (Kochia scoparia); [19]): 98
Kochia plant response rating (kochia (Kochia scoparia); [20]): 100
Plant response rating, Crabgrass, Large [5, 13]: 80
Plant response rating, Crabgrass, Large [5, 14]: 100
Plant response rating, Crabgrass, Large [5, 15]: 100
Plant response rating, Crabgrass, Large [5, 16]: 100
Plant response rating, Crabgrass, Large [5, 17]: 60
Plant response rating, Crabgrass, Large [5, 18]: 100
Plant response rating, Crabgrass, Large [5, 19]: 100
Crabgrass, Large plant response rating [5, 20]: 100
Plant response rating, Foxtail, Giant [6, 13]: 98
Plant response rating, Foxtail, Giant [6, 14]: 100
Plant response rating, Foxtail, Giant [6, 15]: 100
Plant response rating, Foxtail, Giant [6, 16]: 100
Plant response rating, Foxtail, Giant [6, 17]: 0
Plant response rating, Foxtail, Giant [6, 18]: 10
Plant response rating, Foxtail, Giant [6, 19]: 90
Foxtail, Giant plant response rating [6, 20]: 100
Plant response rating, Goosegrass [7, 13]: 98
Plant response rating, Goosegrass [7, 14]: 98
Plant response rating, Goosegrass [7, 15]: 100
Plant response rating, Goosegrass [7, 16]: 100
Plant response rating, Goosegrass [7, 17]: 95
Plant response rating, Goosegrass [7, 18]: 100
Plant response rating, Goosegrass [7, 19]: 100
Goosegrass plant response rating [7, 20]: 100
Plant response rating, Lambsquarters [8, 13]: 98
Plant response rating, Lambsquarters [8, 14]: 100
Plant response rating, Lambsquarters [8, 15]: 100
Plant response rating, Lambsquarters [8, 16]: 100
Plant response rating, Lambsquarters [8, 17]: 100
Plant response rating, Lambsquarters [8, 18]: 100
Plant response rating, Lambsquarters [8, 19]: 100
Lambsquarters plant response rating [8, 20]: 100
Plant response rating, Pigweed [9, 13]: 80
Plant response rating, Pigweed [9, 14]: 98
Plant response rating, Pigweed [9, 15]: 100
Plant response rating, Pigweed [9, 16]: 100
Plant response rating, Pigweed [9, 17]: 80
Plant response rating, Pigweed [9, 18]: 95
Plant response rating, Pigweed [9, 19]: 100
Pigweed plant response rating [9, 20]: 100
Plant response rating, Nutsedge, Yellow [10, 13]: 40
Plant response rating, Nutsedge, Yellow [10, 14]: 45
Plant response rating, Nutsedge, Yellow [10, 15]: 70
Plant response rating, Nutsedge, Yellow [10, 16]: 75
Plant response rating, Nutsedge, Yellow [10, 17]: 0
Plant response rating, Nutsedge, Yellow [10, 18]: 0
Plant response rating, Nutsedge, Yellow [10, 19]: 65
Nutsedge, Yellow plant response rating [10, 20]: 80
Plant response rating, Cupgrass, Woolly [11, 13]: 100
Plant response rating, Cupgrass, Woolly [11, 14]: 100
Plant response rating, Cupgrass, Woolly [11, 15]: 100
Plant response rating, Cupgrass, Woolly [11, 16]: 100
Plant response rating, Cupgrass, Woolly [11, 17]: 50
Plant response rating, Cupgrass, Woolly [11, 18]: 70
Plant response rating, Cupgrass, Woolly [11, 19]: 80
Cupgrass, Woolly plant response rating [11, 20]: 100
Plant response rating, Foxtail, Green [12, 13]: 85
Plant response rating, Foxtail, Green [12, 14]: 98
Plant response rating, Foxtail, Green [12, 15]: 100
Plant response rating, Foxtail, Green [12, 16]: 100
Plant response rating, Foxtail, Green [12, 17]: 0
Plant response rating, Foxtail, Green [12, 18]: 0
Plant response rating, Foxtail, Green [12, 19]: 75
Foxtail, Green plant response rating [12, 20]: 100
